Assay results reported in ChEMBL document CHEMBL4138083, “Design, synthesis and primary biological evaluation of the novel 2-pyridone derivatives as potent non-nucleoside HBV inhibitors” (Eur J Med Chem, 2017).
pIC50: −log10 of the molar value.

Assays:
[1] = Cytotoxicity against human HepG2.2.15 cells assessed as reduction in cell viability after 8 days by CCK-8 assay; type: cell-based, HepG2 2.2.15
Hepatitis B virus [2] = test: Antiviral activity against Hepatitis B virus infected in human HepG2.2.15 cells assessed as inhibition of HBsAg secretion after 8 days by ELISA; type: functional, organism-based; details: HepG2.2.15, 192 h
[3] = Selectivity index, ratio of CC50 for human HepG2.2.15 cells to IC50 for Hepatitis B virus infected in human HepG2.2.15 cells assessed as inhibition of HBsAg secretion; type: toxicity, cell-based; details: read-out: Ratio CC50/IC50
Hepatitis B virus [4] = test: Antiviral activity against Hepatitis B virus infected in human HepG2.2.15 cells assessed as inhibition of HBeAg secretion after 8 days by ELISA; type: functional, organism-based; details: HepG2.2.15, 192 h
Hepatitis B virus [5] = test: Antiviral activity against Hepatitis B virus infected in human HepG2.2.15 cells assessed as inhibition of viral DNA replication at 20 uM after 8 days by real time fluorescent PCR method relative to control; type: functional; details: HepG2.2.15, 192 h
[6] = Selectivity index, ratio of CC50 for human HepG2.2.15 cells to IC50 for Hepatitis B virus infected in human HepG2.2.15 cells assessed as inhibition of HBeAg secretion; type: toxicity, cell-based; details: read-out: Ratio CC50/IC50
Hepatitis B virus [7] = test: Antiviral activity against Hepatitis B virus infected in human HepG2.2.15 cells assessed as inhibition of viral DNA replication at 0.8 uM after 8 days by real time fluorescent PCR method relative to control; type: functional; details: HepG2.2.15, 192 h
Hepatitis B virus [8] = test: Antiviral activity against Hepatitis B virus infected in human HepG2.2.15 cells assessed as inhibition of viral DNA replication after 8 days by real time fluorescent PCR method; type: functional, organism-based; details: HepG2.2.15, 192 h
Hepatitis B virus [9] = test: Antiviral activity against Hepatitis B virus infected in human HepG2.2.15 cells assessed as inhibition of viral DNA replication at 4 uM after 8 days by real time fluorescent PCR method relative to control; type: functional; details: HepG2.2.15, 192 h
Hepatitis B virus [10] = test: Antiviral activity against Hepatitis B virus infected in human HepG2.2.15 cells assessed as inhibition of viral DNA replication at 0.16 uM after 8 days by real time fluorescent PCR method relative to control; type: functional; details: HepG2.2.15, 192 h
Hepatitis B virus [11] = test: Antiviral activity against Hepatitis B virus assessed as inhibition of HBsAg secretion; type: functional, organism-based

Structure (SMILES)	CC50 at 192 h [1] [µM]	pIC50 (Hepatitis B virus [2])	selectivity ratio [3]	pIC50 (Hepatitis B virus [4])	inhibition at 20 µM (Hepatitis B virus [5]) [%]	selectivity ratio [6]	inhibition at 0.8 µM (Hepatitis B virus [7]) [%]	pIC50 (Hepatitis B virus [8])	inhibition at 4 µM (Hepatitis B virus [9]) [%]	inhibition at 0.16 µM (Hepatitis B virus [10]) [%]	pIC50 (Hepatitis B virus [11])
COc1ccc(-c2cc(NC(=O)c3ccc(Cl)cc3O)c[nH]c2=O)cc1	50.5	4.10	0.64	4.11	22.9	0.66					
COc1ccc(C(=O)Nc2c[nH]c(=O)c(-c3cc(C)ccc3C)c2)c(O)c1	50.4	4.29	0.98	4.59	< 0	1.95					
CCOc1ccc(-c2cc(NC(=O)c3cc(OC)ccc3O)c[nH]c2=O)cc1	57.7	4.31	1.17	4.29	46	1.13					
Cc1cccc(-c2cc(NC(=O)c3ccc(C(F)(F)F)cc3O)c[nH]c2=O)c1	24.2	4.58	0.92	4.57	23.2	0.9					
COc1ccc(-c2cc(NC(=O)c3ccc(C)cc3O)c[nH]c2=O)cc1	46.1	4.05	0.51	4.63	58.1	1.96					
CCOc1ccc(-c2cc(NC(=O)c3ccc(C)cc3O)c[nH]c2=O)cc1	> 100	4.21	> 1.61	4.04	36.4	> 1.09					
Cc1cccc(-c2cc(NC(=O)c3ccc(F)cc3O)c[nH]c2=O)c1	37.2	4.18	0.57	4.49	37.6	1.15					
COc1ccc(C(=O)Nc2c[nH]c(=O)c(-c3ccc4c(c3)OCO4)c2)c(O)c1	25.2	4.58	0.95	4.62	51.9	1.04					
CCOc1ccc(-c2cc(NC(=O)c3ccccc3O)c[nH]c2=O)cc1	41	4.82	2.69	4.61	37.8	1.66					
Cc1cccc(-c2cc(NC(=O)c3ccc(Cl)cc3O)c[nH]c2=O)c1	33.1	4.41	0.85	4.65	26.5	1.48					
COc1ccc(-c2cc(NC(=O)c3cccc(OC)c3O)c[nH]c2=O)cc1	49.2	4.46	1.43	4.48	25.3	1.5					
CCOc1ccc(-c2cc(NC(=O)c3ccc(Cl)cc3O)c[nH]c2=O)cc1	28.6	4.64	1.23	4.64	21.9	1.25					
Cc1cc(C)cc(-c2cc(NC(=O)c3ccccc3O)c[nH]c2=O)c1	25.1	4.60	0.99	4.60	21.5	0.99					
COc1ccc(-c2cc(NC(=O)c3ccc(OC)cc3O)c[nH]c2=O)cc1	49.9	4.58	1.92	4.76	59.3	2.86					
COc1ccc(C(=O)Nc2c[nH]c(=O)c(-c3ccc(OC)c(F)c3)c2)c(O)c1	50.5	4.28	0.97	4.50		1.6					
CCOc1ccc(-c2cc(NC(=O)c3ccc(OC)cc3O)c[nH]c2=O)cc1	69.6	4.36	1.58	4.38	4.2	1.68					
COc1cccc(C(=O)Nc2c[nH]c(=O)c(-c3cccc(C)c3)c2)c1O	> 100	4.02	> 1.06	< 4.00							
CCOc1ccc(-c2cc(NC(=O)c3cccc(OC)c3O)c[nH]c2=O)cc1	34.5	4.52	1.13	4.38	24.9	0.83					
Cc1cccc(-c2cc(NC(=O)c3ccc(C)cc3O)c[nH]c2=O)c1	75	< 4.00	< 0.75	4.41		1.91					
COc1ccc(C(=O)Nc2c[nH]c(=O)c(-c3cccc(C)c3)c2)c(O)c1	> 100	< 4.00		4.35	60.9	> 2.24					
Cc1cccc(-c2cc(NC(=O)c3ccccc3O)c[nH]c2=O)c1	98.8	< 4.00	< 0.99	4.23	25.5	1.69					
CCOc1ccc(-c2cc(NC(=O)c3ccc(C(F)(F)F)cc3O)c[nH]c2=O)cc1	22.2	4.62	0.94	4.62	76.8	0.92	39.5	5.47	47.3	4.7	
COc1ccc(-c2cc(NC(=O)c3ccccc3O)c[nH]c2=O)cc1	> 100	< 4.00		4.33	37.9	> 2.16					
COc1ccc(C(=O)Nc2c[nH]c(=O)c(-c3ccc(C)c(C)c3)c2)c(O)c1	31.3	4.49	0.97	4.48	< 0	0.94					
COc1ccc(O)c(C(=O)Nc2c[nH]c(=O)c(-c3cccc(C)c3)c2)c1	30.1	4.68	1.44	4.77	40.3	1.78					
CCOc1ccc(-c2cc(NC(=O)c3ccc(F)cc3O)c[nH]c2=O)cc1	51.5	4.55	1.81	4.22		0.85					
CCOc1ccc(-n2cc(C(=O)c3ccc(OC)cc3O)ccc2=O)cc1	> 100	< 4.00		4.29	53.3	> 1.94					
Nc1ccn([C@@H]2CS[C@H](CO)O2)c(=O)n1 [LAMIVUDINE]	> 100	< 4.00		< 4.00	81.9		56.2	6.30	80.8	37	
COc1c(O)cc2occ(-c3ccc(O)cc3)c(=O)c2c1O [TECTORIGENIN]											4.27
